Data as given in PMC9919139, “Sustainable Synthesis, Antiproliferative and Acetylcholinesterase Inhibition of 1,4- and 1,2-Naphthoquinone Derivatives” (Molecules, 2023).
“And” between values parts separate entries of the source, which are not always exact repeats. Equal values may be shown once. Read-outs that look alike come from different tables or passages of the source.

Assays:
[1] = MTT cytotoxicity assay against HepG2 cell line; format: cell-based, human; settings: human, HepG2 cells, HepG2, 24 h incubation, mean ± SD, read-out: EC50 (cytotoxicity, concentration leading to the death of 50% of the cells)
Description: (§1) A hepatocellular carcinoma cell line HepG2, recognized for studying the metabolism of anticancer drugs, was used. The viability of HepG2 cell line culture after 24 h incubation with the compounds using the MTT (3-[4,5-dimethylthiazol-2-yl]-2,5-diphenyl tetrazolium bromide) assay was evaluated, and doxorubicin (Doxo) was used as a positive control.
(§2) HepG2 human hepatocyte carcinoma cell line was purchased from European Collection of Authenticated Cell Cultures (ECACC). HepG2 cells (ECACCC# 85011430) were cultured in Dulbecco’s Modified Eagle´s Medium (DMEM) supplemented with 10% fetal bovine serum, antibiotic-antimycotic (100 U/mL penicillin-streptomycin and 0.25 μg amphotericin B) and 2 mM L-glutamine at 37 °C in an atmosphere containing 5% CO2. The 3-(4,5-dimethylthiazol-2-yl)-2,5-diphenyltetrazolium bromide (MTT) method, described in Gaspar et al., [50] was used for assaying cell viability. Briefly, the cells were grown in the supplemented medium in 96-well microplates in an incubator with 5% CO2 at 37 °C, until reaching 100% confluence. After growth, the medium was replaced by the compounds’ solutions at different concentrations. The compounds were solubilized in supplemented medium containing 0.5% DMSO final concentration. Cells treated only with medium containing 0.5% DMSO served as a negative control. After 24 h incubation, the compound’s solutions were replaced by 100 µL of 0.5 mg/mL MTT solution in DMEM culture medium and incubated at 37 °C, 5% CO2 for 2–4 h. The formed formazan crystals were dissolved in 200 µL of methanol and the absorbance at 595 nm was registered against 630 nm (reference wavelength). For each concentration of the compounds, the percentage of growth inhibition/cytotoxicity was evaluated considering 100% of viability for the absorbance of the negative control. Dose-response curves for each compound were plotted using the Graph Pa Prim 4.0 software and the effective concentration leading to the death of 50% of the cells (EC50) was calculated. All experiments were replicated at least six times.

[2] = Cyclic voltammetry in acetonitrile; format: physicochemical; settings: for Ipa/Ipc: Tables S1/S2, acetonitrile; for ∆E (I) / E1/2 (I) / Epc (I): first reduction wave; for ∆E (I) / E1/2 (I) / Epc (I) / Epc (II) / ∆E (II) / E1/2 (II): scan rate 0.100 V·s−1; for Epa. Epc: Tables S1/S2, peak separation; for Epc (II) / ∆E (II) / E1/2 (II): second reduction wave
From the text: To obtain an insight into the electronic character of the studied naphthoquinone derivatives and to find out possible relationships with their potential biological activities, the electrochemical behavior of 1,4-NQ (1) and 1,2-NQ (2) and their 2-substituted-1,4-NQ (3a–f) and 4-substituted-1,2-NQ derivatives (4a–h), respectively, were studied by cyclic voltammetry (CV) in aprotic medium (CH3CN + TBAP, 0.1 mol.L^−^1) and the electrochemical selected data are listed in Table 3 (for complete electrochemical data, see Tables S1 and S2, supplementary material).
The redox potentials were measured by cyclic voltammetry using an EG&G Princeton Applied Research (PAR) Model 273A potentiostat/galvanostat monitored by a personal computer with the Electrochemistry PowerSuite v2.51 software from PAR. Cyclic voltammograms were obtained in 1 mM of compounds in anhydrous acetonitrile solutions containing tetrabutylammonium hexafluorophosphate (TBAPF6) 0.1 M as supporting electrolyte. A three-electrode configuration cell was used with a homemade platinum disk working electrode (1.0 mm diameter) probed by a Luggin capillary connected to a silver-wire pseudo-reference electrode and a platinum wire auxiliary electrode. The potentials were scanned from −1.8 to 1.8 V at a scan rate of 100 mV·s^−^1. All measurements were done at room temperature and the solutions were deaerated with nitrogen atmosphere before use. All the potentials reported were measured against the ferrocene/ferrocenium redox couple as internal standard and corrected to SCE (using the ferrocenium/ferrocene redox couple E1/2 = 0.40 V vs. SCE).

[3] = target: acetylcholinesterase (AChE) (Homo sapiens, UniProt P22303); test: AChE inhibition assay (Ellman's colorimetric method); format: biochemical; settings: for IC50: concentration that inhibits 50% of the AChE activity, read-out: AChEIC50
acetylcholinesterase (AChE), sequence (P22303 32-614): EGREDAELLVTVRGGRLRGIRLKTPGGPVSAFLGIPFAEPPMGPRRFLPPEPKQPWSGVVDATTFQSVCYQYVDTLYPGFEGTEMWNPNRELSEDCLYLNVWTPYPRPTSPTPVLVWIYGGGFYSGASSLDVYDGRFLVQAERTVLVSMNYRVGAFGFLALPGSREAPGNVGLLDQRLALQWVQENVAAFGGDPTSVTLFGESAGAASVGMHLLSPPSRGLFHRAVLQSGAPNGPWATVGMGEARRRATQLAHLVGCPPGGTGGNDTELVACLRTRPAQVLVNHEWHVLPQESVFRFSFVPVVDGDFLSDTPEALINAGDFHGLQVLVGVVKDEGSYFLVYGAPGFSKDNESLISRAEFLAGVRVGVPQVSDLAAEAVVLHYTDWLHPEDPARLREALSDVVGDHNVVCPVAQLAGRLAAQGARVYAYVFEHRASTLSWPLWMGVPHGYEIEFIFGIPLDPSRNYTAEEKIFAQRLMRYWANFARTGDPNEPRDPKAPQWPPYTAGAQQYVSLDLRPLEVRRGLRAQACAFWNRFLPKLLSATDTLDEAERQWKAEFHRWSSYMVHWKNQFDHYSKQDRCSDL
Description: The inhibition of acetylcholinesterase (AChE) enzymatic activity was measured using the Ellman’s colorimetric method with some alterations. Briefly, 325 μL of 50 mM Tris–HCl buffer (pH 8), 100 μL of a compound’s solution with 1% DMSO, and 25 μL of AChE (0.1 U/mL) in 50 mM Tris–HCl buffer pH 8 were incubated for 15 min. Subsequently, 75 μL of acetylthiocholine iodide (AChI) (0.023 mg/mL) and 475 μL of 3 mM 5,5′-dithiobis(2-nitrobenzoic acid) (DTNB) in Tris–HCl buffer (pH 8) containing 0.05 M NaCl and 0.021 M MgCl2 were added to initiate the reaction. The initial rate of the enzymatic reaction was quantified by measuring the absorbance at 405 nm for 5 min (V[compound]). A control reaction was carried out using 1% DMSO water solution, instead of the compound’s solution, and this initial rate was considered 100% of the enzymatic activity, Vcontrol. The percentage of AChE inhibition (I) for various concentrations of the different compounds was determined as the ratio of V[compound] and Vcontrol. For each compound, both the AChEIC50 value (the concentration that inhibits 50% of the AChE activity) and the percentage of inhibition at the compound concentration of 50 µM (Inhibition50µM) were calculated by plotting I for each compound concentration. All the assays were carried out in triplicate.

[4] = tested on: HepG2 human hepatocyte carcinoma cell line; test: MTT cytotoxicity assay against HepG2 cell line; format: cell-based; settings: HepG2, 24 h incubation, mean ± SD, read-out: EC50 (cytotoxicity, concentration leading to the death of 50% of the cells)
Description: as §1, §2

AChE = settings: read-out: AChEIC50 of reference AChE inhibitors; cited from earlier work
[5] = Tables S1/S2, every redox process listed, acetonitrile, vs SCE, 100 mV.s-1
[6] = read-out: Inhibiton50µM (μM±SD)
[7] = read-out: Inhibition50µM (AChE inhibition)

SMILES	EC50 at 24 h [1]	Ipa/Ipc ([2]; 100 mV.s-1)	E1/2 [2, 5]	∆E (I) ([2]; acetonitrile)	E1/2 (I) ([2]; acetonitrile, vs SCE)	Epc (I) ([2]; acetonitrile, vs SCE)	inhibition at 50 µM [3, 6]	Epa. Epc ([2]; acetonitrile, 100 mV.s-1)	Epc (II) ([2]; acetonitrile, vs SCE)	further results
O=C1C=C(Nc2ccc(O)cc2)C(=O)c2ccccc21 [Compound 3b, 2-(4-aminophenol)-1,4-naphthoquinone]	21.4 ± 3.9 µM	1.0	-0.81 V	70 mV	−0.81 V	−0.84 V	16.4 ± 2%	–	–	Epc [2, 5]: -0.84 V
COc1cccc2c1C(=O)c1c(O)c3c(c(O)c1C2=O)C[C@@](O)(C(=O)CO)C[C@@H]3O[C@H]1C[C@H](N)[C@H](O)[C@H](C)O1 [Doxorubicin, doxorubicin, reference compound]	1.42 ± 1 µM	–	–	–	–	–	–	–	–	EC50 [4]: 1.4 µM
CCCCNC1=CC(=O)C(=O)c2ccccc21 [Compound 4e, 4-(butan-1-amine)-1,2-naphthoquinone]	26.8 ± 1.1 µM	–	-0.71 V	–	–	−0.78 V	62.4 ± 1.5%	150 mV	–	Epc [2, 5]: -0.78 V
N#Cc1ccc(NC2=CC(=O)c3ccccc3C2=O)cc1 [Compound 3d, 2-(4-aminobenzonitrile)-1,4-naphthoquinone]	79.4 ± 1.4 µM	1.0	-0.70 V	80 mV	−0.70 V	−0.74 V	25.8 ± 3%	80 mV	–	Epa [2, 5]: -0.66 V
COc1ccc(NC2=CC(=O)c3ccccc3C2=O)cc1 [Compound 3c, 2-(4-methoxyaniline)-1,4-naphthoquinone]	13 ± 1.8 µM	1.0	–	70 mV	−0.82 V	−0.86 V	25.9 ± 3%	120 mV	−1.34 V	–
CCN(CC)C1=CC(=O)C(=O)c2ccccc21 [Compound 4f, 4-(diethylamine)-1,2-naphthoquinone]	23.1 ± 1.7 µM	0.9	-0.63 V	–	–	−0.52 V	54.7 ± 2%	120 mV	−0.69 V	∆E (II) ([2]; acetonitrile): 120 mV; E1/2 (II) ([2]; acetonitrile, vs SCE): −0.63 V
O=C1C=C(Nc2ccc(O)cc2)c2ccccc2C1=O [Compound 4b]	7.1 ± 1.8 µM	–	–	–	–	−0.61 V	74.1 ± 1.1%	–	–	Epc [2, 5]: -0.61 V; IC50 [3]: 30 µM
N#Cc1ccc(NC2=CC(=O)C(=O)c3ccccc32)cc1 [Compound 4d]	26.8 ± 1.1 µM	–	–	–	–	−0.47 V	41.6 ± 2.4%	–	−0.84 V	–
O=C1C=CC(=O)c2ccccc21 [Compound 1, 1,4-naphthoquinone, reference compound]	32.2 ± 1.4 µM	0.9	-0.66 V	80 mV	−0.66 V	−0.70 V	50.7 ± 2.3%	80 mV	−1.36 V	EC50 ([4]; listed as 1,4-NQ): 32 µM; inhibition at 50 µM [3, 7]: 51%
Nc1ccc(NC2=CC(=O)C(=O)c3ccccc32)cc1 [Compound 4a]	2.7 ± 1 µM	–	–	–	–	−0.67 V	51.7 ± 2.1%	–	–	EC50 [4]: 3 µM; Epc [2, 5]: -0.67 V
COc1ccc(NC2=CC(=O)C(=O)c3ccccc32)cc1 [Compound 4c]	6.5 ± 1.4 µM	–	–	–	–	−0.67 V	45.8 ± 2.9%	–	–	–
Nc1ccc(NC2=CC(=O)c3ccccc3C2=O)cc1 [Compound 3a, 2-(1,4-Phenylenediamine)-1,4-naphthoquinone]	8.7 ± 1.3 µM	0.9	-0.82 V	80 mV	−0.82 V	−0.86 V	23.4 ± 2.5%	80 mV	−1.42 V	–
CCN(CC)C1=CC(=O)c2ccccc2C1=O [Compound 3f, 2-(diethylamine)-1,4-naphthoquinone]	64.7 ± 1.4 µM	1.0	-0.94 V	70 mV	−0.94 V	−0.97 V	47.9 ± 2.5%	–	–	Epc [2, 5]: -0.97 V
O=C1C=Cc2ccccc2C1=O [Compound 2, 1,2-naphthoquinone]	25.6 ± 1.1 µM	1.0	–	110 mV	−0.50 V	−0.55 V	34.9 ± 5.2%	110 mV and 140 mV	−0.98 V	EC50 ([4]; listed as 1,2-NQ): 26 µM; ∆E (II) ([2]; acetonitrile): 140 mV; E1/2 (II) ([2]; acetonitrile, vs SCE): −0.91 V; inhibition at 50 µM [3, 7]: 35%
O=C1C=C(Nc2ccccc2O)c2ccccc2C1=O [Compound 4h]	9.1 ± 3.3 µM	–	–	–	–	−0.57 V	85.3 ± 1.3%	–	−0.98 V	IC50 [3]: 16 µM; inhibition at 50 µM [3, 7]: 85%
CCCCNC1=CC(=O)c2ccccc2C1=O [Compound 3e, 2-(butan-1-amine)-1,4-naphthoquinone]	35.8 ± 1.5 µM	1.0	–	70 mV	−0.95 V	−0.98 V	48.3 ± 1.6%	100 mV	−1.47 V	∆E (II) ([2]; acetonitrile): 100 mV; E1/2 (II) ([2]; acetonitrile, vs SCE): −1.42 V
O=C1C=C(Nc2ccc(Nc3ccccc3)cc2)c2ccccc2C1=O [Compound 4g]	9.2 ± 2.3 µM	–	–	–	–	−0.63 V	75.3 ± 1.3%	–	−1.43 V	–
